Results reported in patent US20160318933A1, “FUSED PYRAZOLE DERIVATIVE” (SUMITOMO DAINIPPON PHARMA CO., LTD., priority 2013, published 2016).
pEC50: −log10 of the molar value. Where a name gives a salt, the structure may show the parent alone.

Target: T1, human brain-derived dopamine D4 receptor (Homo sapiens, UniProt P21917)
T1 construct: expressed in transfected cells; host or cells: CHO (CHO-K1) or HEK293 cells
T1 sequence (P21917 1-419): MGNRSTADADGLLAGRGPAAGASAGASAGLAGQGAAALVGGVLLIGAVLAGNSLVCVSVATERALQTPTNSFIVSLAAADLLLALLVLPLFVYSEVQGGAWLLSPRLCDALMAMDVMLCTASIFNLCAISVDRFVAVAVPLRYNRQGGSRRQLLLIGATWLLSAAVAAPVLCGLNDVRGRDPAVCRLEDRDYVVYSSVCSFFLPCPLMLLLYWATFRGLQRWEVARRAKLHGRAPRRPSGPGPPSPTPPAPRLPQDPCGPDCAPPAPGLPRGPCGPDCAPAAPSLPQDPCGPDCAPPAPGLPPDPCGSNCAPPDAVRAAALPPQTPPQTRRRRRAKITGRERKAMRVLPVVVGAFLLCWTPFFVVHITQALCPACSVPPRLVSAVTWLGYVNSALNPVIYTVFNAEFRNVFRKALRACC
Assay: Agonistic activity in G protein dependent pathway of dopamine D4 receptor (aequorin intracellular calcium luminescence, FDSS)
Format: cell-based
Settings: for pEC50: concentration required to achieve a 50% response of Emax, CHO-K1 or HEK293 cells transfected with D4 receptor; for Emax: read-out: Maximal activity on D4 receptor (%)
Description: The G protein dependent pathway is a pathway for transmitting signals in cells via a second messenger by stimulating a G protein through the binding of guanosine triphosphate (GTP) to the G protein. When GPCRs are activated by the binding of a ligand, a G protein binds to the GPCRs, and thereby GTP binds to a Gα subunit that is one of G protein subunits and a Gγβ subunit is dissociated. The activated Gα subunit regulates intracellular cAMP levels by the activation or inhibition of an adenylate cyclase, and regulates intracellular calcium levels by the activation of phospholipase C to transmit signals in cells.
The agonistic activities of the present compounds in the G protein dependent pathway were evaluated on the basis of intracellular calcium levels as follows. CHO-K1 or HEK293 cell lines transfected with D4 receptor genes were seeded in a 384-well plate, and incubated in a CO2 incubator at 37° C. for 24 hours, and then a solution of the present compound in DMSO was added into cells preloaded with coelenterazine to measure the change in luminescent signals with a FDSS (Hamamatsu Photonics K.K.). […] The agonistic activity of the present compound was calculated according to the measured luminescent signals, as the maximal activity (Emax) of the present compound. EC50 value was calculated as the concentration of the present compound required to achieve a 50% response of Emax.

SMILES | pEC50 | Emax [%]
Cc1cccnc1-c1cc2n(n1)CCN(Cc1ccc(C(F)F)nc1)C2 [Example 138] | 7.30 | 49
Cc1nc(CN2CCn3nc(-c4ncccc4C)cc3C2)cs1 [Example 139] | 9.22 | 56
FC(F)(F)c1cccnc1-c1cc2n(n1)CCN(Cc1ccccc1)C2 [Example 140, 5-Benzyl-2-[3-(trifluoromethyl)pyridin-2-yl]-4,5,6,7-tetrahydropyrazolo[1,5-a]pyrazine] | 7.07 | 85
Cc1ncc(CN2CCn3nc(-c4ccccn4)c(F)c3C2)c(N)n1 [Example 141] | 7.06 | 56
Cc1ncc(CN2CCn3nc(-c4ccccn4)c(C)c3C2)c(N)n1 [Example 142] | 7.17 | 82
Cc1cccnc1-c1cc2n(n1)CCN(Cc1ccc(C(F)(F)F)nc1)C2 [Example 143, 2-(3-Methylpyridin-2-yl)-5-{[6-(trifluoromethyl)pyridin-3-yl]methyl}-4,5,6,7-tetrahydropyrazolo[1,5-a]pyrazine] | 7.10 | 48
Cc1cccnc1-c1cc2n(n1)CCN(Cc1cc3ccccc3[nH]1)C2 [Example 145] | 7.35 | 52
Cc1cccnc1-c1cc2n(n1)CCN(Cc1cc3ccccc3n1C)C2 [Example 146] | 7.05 | 48
Cc1cccnc1-c1cc2n(n1)CCN(Cc1c[nH]c3ccccc13)C2 [Example 147] | 7.48 | 59
Cc1cccnc1-c1cc2n(n1)CCN(Cc1cn(C)c3ccccc13)C2 [Example 148] | 7.33 | 71
Cc1cccnc1-c1cc2n(n1)CCN(Cc1c3ccccc3nn1C)C2 [Example 149] | 6.97 | 53
Cn1c(CN2CCn3nc(-c4ncccc4F)cc3C2)cc2ccccc21 [Example 150] | 7.42 | 71
Nc1ncc(CN2CCn3nc(-c4ncccc4F)cc3C2)cn1 [Example 151] | 6.99 | 69
Cc1cccc(CN2CCn3nc(-c4ncccc4C(F)(F)F)cc3C2)n1 [Example 152] | 6.97 | 74
Cn1nc(CN2CCn3nc(-c4ncccc4C(F)(F)F)cc3C2)c2ccccc21 [Example 153] | 7.03 | 57
Cc1cnc(CN2CCn3nc(-c4ncccc4C)cc3C2)cn1 [Example 154] | 7.00 | 57
Cc1cccc(CN2CCn3nc(-c4ncccc4C)cc3C2)n1 [Example 156] | 7.26 | 70
Cc1cccnc1-c1cc2n(n1)CCN(Cc1ccc(CO)cn1)C2 [Example 157] | 6.90 | 50
Cc1cccnc1-c1cc2n(n1)CCN(Cc1nn(C)c3ccccc13)C2 [Example 158] | 7.19 | 74

SMILES | pEC50 | Emax [%]
Cc1cnc(CN2CCn3nc(-c4ncccc4F)cc3C2)cn1 [Example 159] | 7.04 | 64
Fc1ccc(CN2CCn3nc(-c4ncccc4F)cc3C2)nc1 [Example 160] | 6.95 | 53
Cc1cccc(CN2CCn3nc(-c4ncccc4F)cc3C2)n1 [Example 161] | 7.59 | 74
Fc1cccnc1-c1cc2n(n1)CCN(Cc1ccc(C(F)(F)F)nc1)C2 [Example 162] | 7.23 | 62
Fc1cccnc1-c1cc2n(n1)CCN(Cc1ccc(C(F)(F)F)cn1)C2 [Example 163] | 7.26 | 57
Cn1c(CN2CCn3nc(-c4ncccc4F)cc3C2)nc2ccccc21 [Example 164] | 7.26 | 64
Fc1cccnc1-c1cc2n(n1)CCN(Cc1c[nH]c3ccccc13)C2 [Example 165] | 7.66 | 65
Cn1cc(CN2CCn3nc(-c4ncccc4F)cc3C2)c2ccccc21 [Example 166] | 7.36 | 85
Cn1nc(CN2CCn3nc(-c4ncccc4F)cc3C2)c2ccccc21 [Example 167] | 7.77 | 69
Cn1nc2ccccc2c1CN1CCn2nc(-c3ncccc3F)cc2C1 [Example 168] | 7.09 | 65
Fc1ccc(CN2CCn3nc(-c4ncccc4F)cc3C2)cn1 [Example 169] | 7.29 | 80
Cc1ncc(CN2CCn3nc(-c4ncccc4C)cc3C2)cn1 [Example 170] | 6.82 | 48
Cc1ncc(CN2CCn3nc(-c4ncccc4F)cc3C2)cn1 [Example 171] | 6.60 | 48
Cc1ncc(CN2CCn3nc(-c4ccccn4)c(Cl)c3C2)c(N)n1 [Example 172, 5-{[3-Chloro-2-(pyridin-2-yl)-6,7-dihydropyrazolo[1,5-a]pyrazin-5 (4H)-yl]methyl}-2-methylpyrimidine-4-amine] | 7.05 | 53
Clc1c(-c2ccccn2)nn2c1CN(Cc1ccccc1)CC2 [Example 173, 5-Benzyl-3-chloro-2-(pyridin-2-yl)-4,5,6,7-tetrahydropyrazolo[1,5-a]pyrazine] | 7.92 | 63
FC(F)(F)c1c(-c2ccccn2)nn2c1CN(Cc1ccccc1)CC2 [Example 175] | 7.04 | 50
Cc1ccc(CN2CCn3nc(-c4ncccn4)cc3C2)cc1 [Example 176] | 7.39 | 39
Cc1cccnc1-c1cc2n(n1)CCN(Cc1ccc(OC(F)(F)F)c(F)c1)C2 [Example 177, 5-[3-Fluoro-4-(trifluoromethoxy)benzyl]-2-(3-methylpyridin-2-yl)-4,5,6,7-tetrahydropyrazolo[1,5-a]pyrazine monohydrochloride] | 6.85 | 39
Cc1cccnc1-c1cc2n(n1)CCN(Cc1ccc(Cl)c(C)n1)C2 [Example 178] | 7.49 | 50

SMILES | pEC50 | Emax [%]
Cc1c(-c2ncccc2F)nn2c1CN(Cc1ccc(C(F)F)cn1)CC2 [Example 179] | 7.19 | 38
Cc1cccnc1-c1cc2n(n1)CCN(Cc1ccc(CF)c(C)n1)C2 [Example 180] | 7.42 | 63
Cc1cccnc1-c1cc2n(n1)CCN(Cc1cc3c(cn1)CCC3)C2 [Example 181] | 7.37 | 43
Cc1cccnc1-c1cc2n(n1)CCN(Cc1cc3c(cn1)COC3)C2 [Example 182] | 7.10 | 47
Cc1cccnc1-c1cc2n(n1)CCN(Cc1ncc(Br)cc1F)C2 [Example 183] | 6.97 | 49
Cc1cnc(CN2CCn3nc(-c4ncccc4C)cc3C2)c(F)c1 [Example 184] | 6.94 | 51
Cc1cccnc1-c1cc2n(n1)CCN(Cc1cc3c(cn1)OCC3)C2 [Example 185] | 7.09 | 51
Cc1cccnc1-c1cc2n(n1)CCN(Cc1cnc3c(c1)CCCC3)C2 [Example 186] | 7.29 | 44
Cc1cc(CN2CCn3nc(-c4ncccc4C)cc3C2)cnc1Cl [Example 187] | 7.49 | 66
Cc1cc(CN2CCn3nc(-c4ncccc4C)cc3C2)cnc1C [Example 188] | 7.36 | 63
Cc1cccnc1-c1cc2n(n1)CCN(Cc1cnc(C)c(Cl)c1)C2 [Example 189, 5-[(5-Chloro-6-methylpyridin-3-yl)methyl]-2-(3-methylpyridin-2-yl)-4,5,6,7-tetrahydropyrazolo[1,5-a]pyrazine] | 7.24 | 49
Cc1ncc(CN2CCn3nc(-c4ncccc4C)cc3C2)c(C)n1 [Example 190, 5-[(2,4-Dimethylpyrimidin-5-yl)methyl]-2-(3-methylpyridin-2-yl)-4,5,6,7-tetrahydropyrazolo[1,5-a]pyrazine] | 7.22 | 61
Cc1ncc(CN2CCn3nc(-c4ncccc4F)cc3C2)c(C)n1 [Example 191] | 7.37 | 76
Cc1cccnc1-c1cc2n(n1)CCN(Cc1cnc(C(F)(F)F)nc1)C2 [Example 195] | 7.08 | 35
Cc1cccnc1-c1cc2n(n1)CCN(Cc1cnc(C(F)F)nc1)C2 [Example 196] | 7.26 | 29
Fc1cccnc1-c1cc2n(n1)CCN(Cc1cnc(C(F)(F)F)nc1)C2 [Example 198] | 7.35 | 33
Fc1cccnc1-c1cc2n(n1)CCN(Cc1cnc(C(F)F)nc1)C2 [Example 199] | 7.00 | 36
Cc1cccnc1-c1cc2n(n1)CCN(Cc1cnc(C(C)C)nc1)C2 [Example 203] | 7.43 | 54
